These results are taken from patent US9593109B2, “Bicyclic agonists of GPR131 and uses thereof” (CYMABAY THERAPEUTICS, INC., priority 2011, dated 2017).

Structures are written as SMILES.

This test deals with T1, human GPR131 (Homo sapiens, UniProt Q8TDU6).
T1 construct: expressed in transfected cells
T1 sequence (Q8TDU6 1-330): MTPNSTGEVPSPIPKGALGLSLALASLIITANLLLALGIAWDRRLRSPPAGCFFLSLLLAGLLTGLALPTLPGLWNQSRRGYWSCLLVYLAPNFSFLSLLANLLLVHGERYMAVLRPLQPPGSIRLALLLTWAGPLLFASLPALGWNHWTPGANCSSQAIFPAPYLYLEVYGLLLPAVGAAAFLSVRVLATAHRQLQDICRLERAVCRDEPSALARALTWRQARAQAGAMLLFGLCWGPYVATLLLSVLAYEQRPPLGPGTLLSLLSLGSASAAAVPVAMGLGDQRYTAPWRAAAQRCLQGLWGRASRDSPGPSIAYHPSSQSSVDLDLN
The test can be described thus: Stimulation of cAMP (agonism of GPR131), FRET cAMP assay. The class given is cell-based. As to conditions: 0.5 h; 1.1 μM compound; compared to maximal stimulatory activity of lithocholic acid (LCA) determined at 3.3 μM; stable cell line expressing human GPR131; 37° C. for 30 minutes; read-out: Percent Activity @ 1.1 μM (of 3.3 uM LCA) (%). The method, then:
This assay was developed using a stable cell line expressing human GPR131.
To measure cAMP activity in response to GPR131 agonists, GPR131 cells suspended in DMEM/F12 medium with 1 mM IBMX were seeded in 384 well plates at 5000 cells per well. After incubating with test compounds at 37° C. for 30 minutes cAMP was measured using a fluorescene resonance energy transfer cAMP kit from Cis Bio (Bedford, Mass.) according to the manufacturer's instructions. Briefly, cells were lysed, and cAMP levels determined by competitive immunoassay using D2 labeled cAMP, and europium cryptate tagged anti cAMP antibody. Decreases in the FRET signal (fluorescence ratio (665 nm/620 […]) correspond to increases in intracellular cAMP levels.
Activities of test compounds in Table 1 below are expressed as percent activity at 1.1 μM compound compared to the maximal stimulatory activity of lithocholic acid (LCA) (determined at 3.3 μM LCA).
As to `Clc1ccc(-n2nnnc2-c2c(-c3ccccc3Cl)nc3ccccn23)cc1` [Compound 500, 2-(2-Chlorophenyl)-3-(1-(4-chlorophenyl)-1H-tetrazol-5-yl)imidazo[1,2-a]pyridine], the activation at 1.1 µM was 97.4%.

Turning to `Clc1ccc(-n2cnnc2-c2c(-c3ccccc3Cl)nc3ccccn23)cc1` [Compound 501, 2-(2-Chlorophenyl)-3-(4-(4-chlorophenyl)-4H-1,2,4-triazol-3-yl)imidazo[1,2-a]pyridine], the activation at 1.1 µM was determined as 99.4%.

With `Clc1ccc(-n2ncnc2-c2c(-c3ccccc3Cl)nc3ccccn23)cc1` [Compound 503, 2-(2-Chlorophenyl)-3-(1-(4-chlorophenyl)-1H-1,2,4-triazol-5-yl)imidazo[1,2-a]pyridine], the activation at 1.1 µM turned out to be 97.4%.

`Cc1nc(-c2c(-c3cc(Cl)ccc3Cl)nc3ccccn23)n(-c2ccc(Cl)cc2)n1` [Compound 504, 3-(1-(4-Chlorophenyl)-3-methyl-1H-1,2,4-triazol-5-yl)-2-(2,5-dichlorophenyl)imidazo[1,2-a]pyridine]: the activation at 1.1 µM was 97.4%.

For `Cc1nnc(-c2c(-c3cc(Cl)ccc3Cl)nc3ccccn23)n1-c1ccc(Cl)cc1` [Compound 505, 3-(4-(4-Chlorophenyl)-5-methyl-4H-1,2,4-triazol-3-yl)-2-(2,5-dichlorophenyl)imidazo[1,2-a]pyridine], the activation at 1.1 µM came out at 99.1%.

Take `Clc1ccc(-n2ccnc2-c2c(-c3cc(Cl)ccc3Cl)nc3ccccn23)cc1` [Compound 506, 3-(1-(4-Chlorophenyl)-1H-imidazol-2-yl)-2-(2,5-dichlorophenyl)imidazo[1,2-a]pyridine]: the activation at 1.1 µM came out at 99.4%.

As for `Clc1ccc(-n2cncc2-c2c(-c3cc(Cl)ccc3Cl)nc3ccccn23)cc1` [Compound 507, 3-(1-(4-Chlorophenyl)-1H-imidazol-5-yl)-2-(2,5-dichlorophenyl)imidazo[1,2-a]pyridine], the activation at 1.1 µM was 100%.

For the molecule `CN(C)c1ccc(-n2cnnc2-c2c(-c3cc(Cl)ccc3Cl)nc3ccccn23)cc1` [Compound 510, 4-(3-(2-(2,5-Dichlorophenyl)imidazo[1,2-a]pyridin-3-yl)-4H-1,2,4-triazol-4-yl)-N,N-dimethylaniline], the activation at 1.1 µM was 100%.

For `FC(F)(F)c1ccc(-n2cnnc2-c2c(-c3cc(Cl)ccc3Cl)nc3ccccn23)cc1` [Compound 513, 2-(2,5-Dichlorophenyl)-3-(4-(4-(trifluoromethyl)phenyl)-4H-1,2,4-triazol-3-yl)imidazo[1,2-a]pyridine], the activation at 1.1 µM was 100%.

On to `Clc1ccc(Cl)c(-c2nc3ccccn3c2-c2nncn2-c2ccc3[nH]ncc3c2)c1` [Compound 514, 5-(3-(2-(2,5-Dichlorophenyl)imidazo[1,2-a]pyridin-3-yl)-4H-1,2,4-triazol-4-yl)-1H-indazole], for which the activation at 1.1 µM turned out to be 93.3%.

Take `N#Cc1ccc(-n2cnnc2-c2c(-c3cc(Cl)ccc3Cl)nc3ccccn23)cc1` [Compound 515, 4-(3-(2-(2,5-Dichlorophenyl)imidazo[1,2-a]pyridin-3-yl)-4H-1,2,4-triazol-4-yl)benzonitrile]: the activation at 1.1 µM turned out to be 100%.

With `Clc1ccc(Cl)c(-c2nc3ccccn3c2-c2nncn2-c2ccc3cn[nH]c3c2)c1` [Compound 516, 6-(3-(2-(2,5-Dichlorophenyl)imidazo[1,2-a]pyridin-3-yl)-4H-1,2,4-triazol-4-yl)-1H-indazole], the activation at 1.1 µM is 99.8%.

With `Clc1ccc(Cl)c(-c2nc3ccccn3c2-c2nncn2-c2ccc3scnc3c2)c1` [Compound 518, 5-(3-(2-(2,5-Dichlorophenyl)imidazo[1,2-a]pyridin-3-yl)-4H-1,2,4-triazol-4-yl)benzo[d]thiazole], the activation at 1.1 µM came out at 98.4%.

Turning to `Cn1ncc2cc(-n3cnnc3-c3c(-c4cc(Cl)ccc4Cl)nc4ccccn34)ccc21` [Compound 519, 5-(3-(2-(2,5-Dichlorophenyl)imidazo[1,2-a]pyridin-3-yl)-4H-1,2,4-triazol-4-yl)-1-methyl-1H-indazole], the activation at 1.1 µM worked out at 99.9%.

In the case of `Cn1ncc2ccc(-n3cnnc3-c3c(-c4cc(Cl)ccc4Cl)nc4ccccn34)cc21` [Compound 520, 6-(3-(2-(2,5-Dichlorophenyl)imidazo[1,2-a]pyridin-3-yl)-4H-1,2,4-triazol-4-yl)-1-methyl-1H-indazole], the activation at 1.1 µM stood at 95.7%.

Take `Cn1cnc2cc(-n3cnnc3-c3c(-c4cc(Cl)ccc4Cl)nc4ccccn34)ccc21` [Compound 521, 5-(3-(2-(2,5-Dichlorophenyl)imidazo[1,2-a]pyridin-3-yl)-4H-1,2,4-triazol-4-yl)-1-methyl-1H-benzo[d]imidazole]: the activation at 1.1 µM came out at 81.6%.

Take `Clc1ccccc1-c1nc2ccccn2c1-c1nncn1-c1ccc2cn[nH]c2c1` [Compound 522, 6-(3-(2-(2-Chlorophenyl)imidazo[1,2-a]pyridin-3-yl)-4H-1,2,4-triazol-4-yl)-1H-indazole]: the activation at 1.1 µM was determined as 91.4%.

Consider `Clc1ccc(Cl)c(-c2nc3cccnn3c2-c2nncn2-c2ccc3cn[nH]c3c2)c1` [Compound 523, 3-(4-(1H-Indazol-6-yl)-4H-1,2,4-triazol-3-yl)-2-(2,5-dichlorophenyl)imidazo[1,2-b]pyridazine], for which the activation at 1.1 µM worked out at 95.2%.

For `Fc1ccc(-c2nn3ccccc3c2-c2nncn2-c2ccc(Cl)cc2)cc1` [Compound 524, 3-(4-(4-Chlorophenyl)-4H-1,2,4-triazol-3-yl)-2-(4-fluorophenyl)pyrazolo[1,5-a]pyridine], the activation at 1.1 µM came out at 99.1%.

For `O=c1[nH]nc(-c2c(-c3cc(Cl)ccc3Cl)nc3ccccn23)n1-c1ccc(Cl)cc1` [Compound 525, 4-(4-Chlorophenyl)-3-(2-(2,5-dichlorophenyl)imidazo[1,2-a]pyridin-3-yl)-1H-1,2,4-triazol-5(4H)-one], the activation at 1.1 µM was 83.3%.

Take `S=c1[nH]nc(-c2c(-c3cc(Cl)ccc3Cl)nc3ccccn23)n1-c1ccc(Cl)cc1` [Compound 526, 4-(4-Chlorophenyl)-3-(2-(2,5-dichlorophenyl)imidazo[1,2-a]pyridin-3-yl)-1H-1,2,4-triazole-5(4H)-thione]: the activation at 1.1 µM is 98.9%.

In the case of `COc1nnc(-c2c(-c3cc(Cl)ccc3Cl)nc3ccccn23)n1-c1ccc(Cl)cc1` [Compound 527, 3-(4-(4-Chlorophenyl)-5-methoxy-4H-1,2,4-triazol-3-yl)-2-(2,5-dichlorophenyl)imidazo[1,2-a]pyridine], the activation at 1.1 µM was determined as 97.1%.

As to `CSc1nnc(-c2c(-c3cc(Cl)ccc3Cl)nc3ccccn23)n1-c1ccc(Cl)cc1` [Compound 528, 3-(4-(4-Chlorophenyl)-5-(methylthio)-4H-1,2,4-triazol-3-yl)-2-(2,5-dichlorophenyl)imidazo[1,2-a]pyridine], the activation at 1.1 µM was 86.8%.

As to `CCc1ccc(-n2cnnc2-c2c(-c3cc(Cl)ccc3Cl)nc3ccccn23)cc1` [Compound 529, 2-(2,5-Dichlorophenyl)-3-(4-(4-ethylphenyl)-4H-1,2,4-triazol-3-yl)imidazo[1,2-a]pyridine], the activation at 1.1 µM came out at 99.6%.

Turning to `CC(C)c1ccc(-n2cnnc2-c2c(-c3cc(Cl)ccc3Cl)nc3ccccn23)cc1` [Compound 530, 2-(2,5-Dichlorophenyl)-3-(4-(4-isopropylphenyl)-4H-1,2,4-triazol-3-yl)imidazo[1,2-a]pyridine], the activation at 1.1 µM amounted to 98.9%.

In the case of `Clc1ccc(Cl)c(-c2nc3ccccn3c2-c2nncn2-c2ccc(-c3ccccc3)cc2)c1` [Compound 531, 3-(4-([1,1′-Biphenyl]-4-yl)-4H-1,2,4-triazol-3-yl)-2-(2,5-dichlorophenyl)imidazo[1,2-a]pyridine], the activation at 1.1 µM worked out at 88.8%.

Take `Fc1ccc(-n2cnnc2-c2c(-c3cc(Cl)ccc3Cl)nc3ccccn23)cc1` [Compound 533, 2-(2,5-Dichlorophenyl)-3-(4-(4-fluorophenyl)-4H-1,2,4-triazol-3-yl)imidazo[1,2-a]pyridine]: the activation at 1.1 µM was determined as 100%.

For the molecule `Fc1ccccc1-n1cnnc1-c1c(-c2cc(Cl)ccc2Cl)nc2ccccn12` [Compound 534, 2-(2,5-Dichlorophenyl)-3-(4-(2-fluorophenyl)-4H-1,2,4-triazol-3-yl)imidazo[1,2-a]pyridine], the activation at 1.1 µM is 96.8%.

Consider `Fc1cccc(-n2cnnc2-c2c(-c3cc(Cl)ccc3Cl)nc3ccccn23)c1` [Compound 535, 2-(2,5-Dichlorophenyl)-3-(4-(3-fluorophenyl)-4H-1,2,4-triazol-3-yl)imidazo[1,2-a]pyridine], for which the activation at 1.1 µM was found to be 99.6%.

For `Cn1ccc2cc(-n3cnnc3-c3c(-c4cc(Cl)ccc4Cl)nc4ccccn34)ccc21` [Compound 536, 2-(2,5-Dichlorophenyl)-3-(4-(1-methyl-1H-indol-5-yl)-4H-1,2,4-triazol-3-yl)imidazo[1,2-a]pyridine], the activation at 1.1 µM was found to be 100%.

Take `Cc1ccc(-n2cnnc2-c2c(-c3cc(Cl)ccc3Cl)nc3ccccn23)cn1` [Compound 540, 2-(2,5-Dichlorophenyl)-3-(4-(6-methylpyridin-3-yl)-4H-1,2,4-triazol-3-yl)imidazo[1,2-a]pyridine]: the activation at 1.1 µM turned out to be 96%.
